≈ marks a conversion by molar mass, not a printed value.

Data set [1] is described as follows: physchem. Conditions: octan-1-ol/water.
The nature of data set [2]: in vitro. Conditions: mouse, plasma.
Data set [3] is described as follows: in vitro. Conditions: human, plasma.
Data set [4] is described as follows: in vitro. Conditions: Beagle, dog, plasma.
Data set [5] is described as follows: in vitro. Conditions: SD, HW or BN, rat, plasma.
The nature of data set [6]: in vitro. The settings on record: Dunkin Hartley, guinea pig, plasma.
Data set [7] in a line: in vitro. The settings on record: hepatocytes.
The nature of data set [8]: in vitro. Conditions: human, hepatocytes.
Data set [9] can be described thus: in vitro. The settings on record: human.
The nature of data set [10]: physchem.
Data set [11] is described as follows: physchem. Conditions: pH 7.4 buffer.
A short description of data set [12]: physchem. The source holds these as a separate data set.

`O=c1cc(OCc2ccccc2)ccn1-c1ccc2c(cnn2CCN2CCCC2)c1`: the logD in data set [1] (pH 7.4, LogD7.4) came out at 2. In addition, the fraction unbound at 5 h was 0.137 in data set [2], 0.17 in data set [3] (PPB), 0.16 in data set [4] and 0.119 in data set [5].
For `C[C@@H](NC(=O)Cc1ccc(C2CC2)cc1)c1ccc(OCC(F)(F)F)cn1`, the results for the unbound share (fraction unbound) at 5 h in data set [6], in [3] (PPB) and in data set [5] were 0.0006, 0.0041 and 0.0044, respectively.
With `CN(C)CCC1CCN(c2cc(C(=O)NC[C@H]3CC[C@H](CNC(=O)OC(C)(C)C)CC3)c3ccccc3n2)CC1`, the fraction unbound at 5 h was 0.0079 in data set [2], 0.0335 in data set [3] (PPB), 0.0066 in data set [4] and 0.04 in data set [5].
`COc1ccc2ncc(F)c(CCN3CCC(NCc4cc5c(cn4)OCCO5)CC3)c2n1` displayed a logD in data set [1] (pH 7.4, LogD7.4) of 1.46. Also, the hepatocyte CLint in data set [7] amounted to 138 µL/min/1e6 cells. For the same compound, the unbound share (fraction unbound) at 5 h is 0.36 in data set [2], 0.173 in data set [3] (PPB) and 0.0968 in data set [4].
In [8], `O=C(Nc1ccc(N2CCNCC2)cc1)c1ccc(-c2ccc(Cl)cc2)o1` displayed a hepatocyte CLint of under 3 µL/min/1e6 cells. In data set [1] (pH 7.4, LogD7.4), this compound came in with a pH-dependent lipophilicity (logD) of 2.4. In addition, the fraction unbound at 5 h was 0.03 in [2], 0.0268 in [3] (PPB) and 0.0055 in data set [5].
`C[C@H](c1nc2ncccc2c(=O)n1-c1ccc(Cl)cc1)N(CC1CCS(=O)(=O)CC1)C(=O)Cc1ccc(C(F)(F)F)c(F)c1` returned a logD in data set [1] (pH 7.4, LogD7.4) of 2.9. Also, in [7], the hepatocyte CLint was found to be 7.08 µL/min/1e6 cells. This compound also registered a microsomal CLint in [9] (microsomes) of 5.25 µL/min/mg. For the same compound, the fraction unbound at 5 h was 0.0477 in data set [2], 0.11 in data set [3] (PPB), 0.0544 in data set [4] and 0.101 in data set [5].
In turn, `COc1ccccc1CCNCc1cccc(CCNC[C@H](O)c2ccc(O)c3[nH]c(=O)sc23)c1` showed a pH-dependent lipophilicity (logD) in [1] (pH 7.4, LogD7.4) of 0.82. The fraction unbound at 5 h in data set [6] is 0.276; in data set [5], 0.0836.
Compound `COc1nc(Br)cnc1NS(=O)(=O)c1ccc(Cl)s1` showed a pKa in data set [10] of 4.1. This compound also gave a logD in [1] (pH 7.4, LogD7.4) of 0.99. Besides, the fraction unbound at 5 h in data set [2] was 0.0191; in data set [3] (PPB) it was 0.0013; in [4], 0.0124; in [5] it was 0.002. Further, the solubility (thermodynamic) in [11] was 891 µM (≈ 343 µg/mL).
For `O=C(c1c2ccccc2cc2ccccc12)N1CCC(N2CCC[C@@H](C(=O)N3CCOCC3)C2)CC1`, the fraction unbound at 5 h is 0.266 in [2], 0.0661 in [3] (PPB), 0.289 in data set [4] and 0.266 in data set [5].
For the compound `COc1cnc(-c2ccccc2C(F)(F)CNC(=O)c2ccc(COCC(F)(F)F)nc2)cn1`, the fraction unbound at 5 h in [6] was 0.0544; in data set [3] (PPB), 0.0069; in [5] it was 0.0532. The compound also yielded a thermodynamic solubility in data set [11] of 85.1 µM (≈ 41.1 µg/mL).
The compound `CO[C@H]1CC[C@]2(CC1)Cc1ccc(OCC(C)C)cc1C21N=C(C)C(N)=N1` (stereo partly specified) yielded a hepatocyte CLint in [8] of 7.24 µL/min/1e6 cells. Moreover, the logD in [1] (pH 7.4, LogD7.4) worked out at 3.4. For the same compound, the fraction unbound at 5 h in data set [2] was 0.349; in data set [3] (PPB) it was 0.201.
Turning to `FC(F)(F)Oc1ccc(-c2nnc(CCCCc3ccc4cccnc4n3)o2)cc1Cl`, in [8], the hepatocyte CLint is 24.6 µL/min/1e6 cells. Further, the fraction unbound at 5 h is 0.0043 in data set [2] and 0.0008 in data set [3] (PPB).
For `CCOC(=O)C1=C(C)NC(C)=C(C(C)=O)[C@H]1c1cccc2c(=O)cc(C)oc12`, in data set [12], the pKa came to 2.22. For the same compound, the results for the hepatocyte CLint in [8] and in data set [7] were 45.7 µL/min/1e6 cells and 105 µL/min/1e6 cells, respectively. The logD in data set [1] (pH 7.4, LogD7.4) was 2.63. Further, the microsomal CLint in data set [9] (liver microsomes) was over 150 µL/min/mg. For the same compound, the fraction unbound at 5 h in data set [2] is 0.0016; in data set [3] (PPB) it was 0.148; in data set [5] it was 0.0008.
As for `CCCN(c1cccc(S(C)(=O)=O)c1)P(=O)(c1ccccc1)c1ccccc1`, the fraction unbound at 5 h in data set [6] was 0.289; in data set [3], 0.0321; in [5], 0.186.
Consider `COCCN(c1cccnc1)P(=O)(c1ccccc1)c1ccccc1`, for which the fraction unbound at 5 h in data set [6] is 0.58; in [3] it was 0.0872; in data set [5], 0.376.
Turning to `CCCN(c1cncnc1)P(=O)(c1ccccc1)c1ccccc1`, the fraction unbound at 5 h in data set [6] was 0.529.
Take `CC(C)C[C@H](CO)Nc1nc(S[C@@H](C)c2ccccc2)nc2[nH]c(=O)sc12`: the logD in data set [1] (pH 7.4, LogD7.4) stood at 4.3. Besides, the fraction unbound at 5 h is 0.0009 in data set [2], 0.001 in [3] (PPB) and 0.0019 in [4].
As for `CC(C)C[C@H](CO)Nc1nc(S[C@@H](C)c2ccccc2F)nc2nc(N)sc12`, in data set [8], the hepatocyte CLint was determined as 30.9 µL/min/1e6 cells. Moreover, the unbound share (fraction unbound) at 5 h in data set [2] is 0.002; in [3] (PPB) it was 0.0011; in [4] it was 0.002.
As to `Cc1ccc2c(c1)c(-c1ccnc3c(Cl)cccc13)c(C)n2CC(=O)O`, the results for the pKa in data set [12] and in data set [10] were 4.4 and 2.9, respectively. The compound also came in with a logD in data set [1] (pH 7.4, LogD7.4) of 1.27. The same compound showed an intrinsic metabolic clearance (microsomal CLint) in data set [9] (liver microsomes) of 7 µL/min/mg. The unbound share (fraction unbound) at 5 h in data set [2] is 0.0229; in data set [4] it was 0.0041; in data set [5] it was 0.0077. In data set [11], this compound came in with a thermodynamic solubility of 1320 µM (≈ 481 µg/mL).
For `CC(C)Oc1cc(Nc2nc(N[C@@H](C)c3ncc(F)cn3)ncc2Cl)n[nH]1`, the values for the fraction unbound at 5 h in data set [2], in data set [3] (PPB) and in data set [4] were 0.0736, 0.112 and 0.204, respectively.
Take `C[C@H](Nc1ncc(F)c(Nc2cc(C3CC3)[nH]n2)n1)c1ccc(F)cn1`: the logD in data set [1] (pH 7.4, LogD7.4) came out at 3.14. Besides, the fraction unbound at 5 h in data set [2] is 0.0418; in data set [3] (PPB), 0.0801; in data set [4] it was 0.183; in [5], 0.035.
As for `C[C@H](Nc1ncc(Cl)c(Nc2cc(C3CC3)[nH]n2)n1)c1ccc(F)cn1`, the fraction unbound at 5 h in data set [2] is 0.0358; in data set [3] (PPB) it was 0.0358; in [4], 0.11; in data set [5] it was 0.009.
Turning to `Cc1ccc2c(OCCN3CCC(Cc4cccc(NS(C)(=O)=O)c4)CC3)cccc2n1`, the results for the fraction unbound at 5 h in data set [6] and in data set [5] were 0.0437 and 0.0532, respectively.
As to `O=C(CN1CCN(Cc2ccn(-c3ccc(C(F)(F)F)cn3)c2)CC1)NC(c1ccc(F)cc1)c1ccc(F)cc1`, the fraction unbound at 5 h in data set [2] is 0.0013; in data set [3] (PPB) it was 0.0014; in data set [4] it was 0.0006; in [5], 0.0011.
In data set [8], `CC(C)[C@H](C(=O)Nc1nccs1)c1ccc(Cl)cc1` displayed a hepatocyte CLint of 12 µL/min/1e6 cells. Further, the fraction unbound at 5 h was 0.0111 in data set [2], 0.0074 in data set [3] (PPB) and 0.0106 in data set [5].
For `N=C(NCCCCc1ccc(OCC(O)CO)cc1)NC(=O)c1nc(Cl)c(N)nc1N` (stereo unspecified) [552-02 FREE BASE], the fraction unbound at 5 h in [6] is 0.299; in [3] (PPB) it was 0.249; in data set [5] it was 0.314.
Take `CC(C)(C)NCC(O)c1ccc(O)c(CO)c1` (stereo unspecified) [ALBUTEROL]: the unbound share (fraction unbound) at 5 h is 0.855 in data set [6], 0.772 in data set [3] (PPB) and 0.656 in data set [5].
Consider `CC(=O)Nc1nc2c(Oc3cc(-c4ccc(C(F)(F)F)cc4)ncn3)cccc2s1` [AMG-517], for which the fraction unbound at 5 h in data set [6] is 0.0139; in data set [3] (PPB) it was 0.001; in data set [5] it was 0.002.
In the case of `O=C(NCC1CCCCN1)c1cc(OCC(F)(F)F)ccc1OCC(F)(F)F` (stereo unspecified) [FLECAINIDE], in data set [1] (pH 7.4, LogD7.4), the logD came out at 1.13. For the same compound, the fraction unbound at 5 h in [6] is 0.574; in data set [3] (PPB), 0.619; in data set [5] it was 0.535.
As to `COc1ccc(Cl)cc1C(=O)NCCc1ccc(S(=O)(=O)NC(=O)NC2CCCCC2)cc1` [GLYBURIDE], the hepatocyte CLint in data set [8] worked out at 14.4 µL/min/1e6 cells. This compound registered a pKa in data set [10] of 3.76. In data set [1] (pH 7.4, LogD7.4), this compound displayed a pH-dependent lipophilicity (logD) of 2.23. Also, the microsomal CLint in [9] (liver microsomes) amounted to 22 µL/min/mg. For the same compound, the fraction unbound at 5 h in data set [2] was 0.0027; in [3] (PPB), 0.0012; in data set [5] it was 0.0012. This compound also came in with a thermodynamic solubility in data set [11] of 10.5 µM (≈ 5.19 µg/mL).
The compound `CN(C)C(=O)C(CCN1CCC(O)(c2ccc(Cl)cc2)CC1)(c1ccccc1)c1ccccc1` [LOPERAMIDE] had a pKa in [12] of 9.14. Further, in [1] (pH 7.4), the logD was 3.47. In addition, the fraction unbound at 5 h in data set [2] is 0.0358; in [3], 0.0736; in data set [5] it was 0.0544.
In turn, `C[C@@]1(c2cc(-c3cncnc3)c(F)cc2F)CCSC(N)=N1` [LY-2811376] yielded a logD in data set [1] (pH 7.4, LogD7.4) of 0.8. The fraction unbound at 5 h in data set [2] was 0.671; in data set [3] (PPB) it was 0.46; in [4] it was 0.629.
Regarding `C[C@@H]1CN(C(=O)[C@@H]2CN(C(C)(C)C)C[C@H]2c2ccc(F)cc2F)C[C@H](C)[C@@]1(O)c1ccccc1` [PF-00446687], the hepatocyte CLint in [8] is 25.1 µL/min/1e6 cells. Further, the fraction unbound at 5 h in data set [2] is 0.262; in [3] (PPB) it was 0.232; in data set [5] it was 0.19.
On to `CC1(CCCc2cc(=O)oc3[nH]c(=O)[nH]c(=O)c23)CC1` [SCH-900271], for which the hepatocyte CLint in data set [8] is under 3 µL/min/1e6 cells; in [7] it was 42.7 µL/min/1e6 cells. In data set [9] (liver microsomes), this compound had an intrinsic clearance (microsomal CLint) of under 3 µL/min/mg. The fraction unbound at 5 h in data set [2] is 0.0268; in data set [3] (PPB) it was 0.0149; in [5], 0.0149.
As for `CCc1c(C(=O)C(N)=O)c2c(OCC(=O)O)cccc2n1Cc1ccccc1` [VARESPLADIB], the fraction unbound at 5 h in data set [2] is 0.22; in data set [3], 0.124; in data set [4], 0.129; in data set [5] it was 0.0768.

Broadly, the logD is lipophilicity at a set pH, counting ionised and neutral species. The fraction unbound is free concentration divided by total concentration. A lower fraction unbound goes with extensive binding. The term hepatocyte CLint denotes a measure of how fast metabolising enzymes remove a compound, apart from limits set by blood flow. Usually microsomal CLint stands for the capacity of the preparation to metabolise the compound, expressed as a volume cleared per time. As a reminder, the pKa is the pH at which an ionisable group is half protonated. Low values mean a stronger acid or weaker base, high ones a weaker acid or stronger base. As usually defined, the solubility (thermodynamic) is solubility found after equilibrating the solid with the medium.
